Values of other authors as cited in patent US20050084547A1, “Natural product based apoptosis inducers” (PhytoMyco Research Corporation, priority 2003, published 2005).

Tested on: human leukemia HL-60 cells
Details: microscopy, flow cytometry, DNA fragmentation assay

SMILES: CC(=O)OC(C1CO1)C(OC(C)=O)C1CO1 (stereo not shown) [DADAG, diacetyldianhydrogalactitol]
- apoptosis induction: induced apoptosis in the HL-60 cells
